The text below walks through data of US9782379B2, “Use of protectin DX for the stimulation of muscular IL-6 secretion” (Universite Laval, priority 2013, dated 2017).

The test system of assay [1] is genetically obese db/db mice. As to the kind of experiment: 4 mU/kg hyperinsulinemic-isoglycemic clamp in db/db mice, acute PDX. The format is in vivo. The method, then:
The 4 mU/kg hyperinsulinemic-isoglycemic clamp study was performed in 10 week old db/db mice from the BKS.Cg-Dock7^m+/+Lepr^db/J strain at Jackson Labs. Mice were randomly assigned to vehicle or PDX treatment groups. In preparation for the clamps mice were catheterized as described for the lipid infusion study. Mice were administered 2 ug of PDX or an equal volume of vehicle i.v. at 4 h and also 90 minutes prior to the initiation of the insulin pump. Pre-clamp glycemia was taken immediately prior to the second PDX shot. The clamp began 90 minutes later with a primed-continuous infusion of human insulin (16 mU/kg bolus followed by 4 mU·kg^−1·min^−1, Humulin R; Eli Lilly, Indianapolis, Ind.). Glycemia was maintained as close as possible to individual fasting values by infusing 20% dextrose as necessary. Blood samples were taken continuously to determine glycemia as well as insulin concentrations. Mice received saline-washed erythrocytes from donor mice throughout the experimental period (5-6 μl·min-1) to prevent a fall of ≧5% hematocrit.
We further explored the therapeutic efficacy of PDX in genetically obese db/db mice, a well-established model of T2D. Here we tested the ability of PDX to rapidly alleviate insulin resistance using a 4 mU/kg hyperinsulinemic-isoglycemic clamp (see design in FIG. 1). In these experiments, db/db mice were treated with vehicle or PDX (2 μg i.v.) 240 and 90 minutes prior to the initiation of the clamp.

Another assay relates to lean C57BL/6J mice. Nature of the assay: paired 6 h lipid infusion and 4 mU/kg hyperinsulinemic-euglycemic clamp. Type of assay: in vivo. Here is the method:
14-week old male C57BL/6J mice from Jackson Labs were used for the first paired lipid infusion hyperinsulinemic-euglycemic clamp study. These mice were placed on a standard laboratory chow diet with free access to food and water and kept in a 12 h light 12 h dark cycle at the Laval University hospital research centre animal facility. Mice were randomly assigned to saline, lipid or lipid+PDX groups. Five days prior to the experiment, mice were anesthetized and PE-10 catheters (Harvard Apparatus, QC, Canada) were inserted into the left common carotid artery and the right jugular vein for blood sampling and infusions respectively. Mice were fasted for 5 h leading up to the protocol. Immediately prior to the start of the lipid infusion, PDX (1 ug) or an equal volume of vehicle was administered via the jugular catheter to each group. Mice were then infused for 6 h with saline (5ml·kg^−1·h^−1) or lipid (20% intralipid emulsion (Baxter, ON, Canada) 5ml·kg^−1·h^−1 with 20 IU·ml^−1 heparin (LEO pharma, ON, Canada)). 2.5h into the infusion PDX (1 ug) or vehicle was again administered to the appropriate groups and the HIE clamp was initiated as previously described ^8,27. The clamp protocol consisted of a 90 min tracer equilibration period followed by a 120 min experimental period. A 5-μCi bolus of [3-^3H]glucose was given at the start of the tracer equilibration period followed by a 0.05-μCi/min infusion for 90 min. Blood samples were drawn for the assessment of glycemia, insulin and glucose turnover levels. Following the 90 min tracer equilibration period the clamp began with a primed-continuous infusion of human insulin (16 mU/kg bolus followed by 4 mU·kg^−1·min^−1, Humulin R; Eli Lilly, Indianapolis, Ind.). The [3-^3H]glucose infusion was increased to 0.2 μCi/min for the remainder of the experiment. Euglycemia (6.0-7.0 mM) was maintained during clamps by infusing 20% dextrose as necessary. Blood samples were taken continuously to determine glucose specific activity as well as insulin concentrations. Mice received saline-washed erythrocytes from donor mice throughout the experimental period (5-6 μl·min-1) to prevent a fall of ≧5% hematocrit. HGP and Rd were determined using Mari's non-steady-state equations for a two-compartmental model^28.
Snap frozen gastrocnemius muscle and liver from mice were pulverized in liquid nitrogen then lysed overnight at 4° C. in the lysis buffer described for the C2C12 myotube experiments. Immunoblotting of myotube, macrophage, liver and muscle lysates was then performed as previously described^5. Briefly, 50 ug of protein was loaded onto a 7.5% acrylamide gel, subjected to SDS-PAGE then transferred onto nitrocellulose membranes. Membranes were then blocked and probed with the appropriate antibodies. Antibodies for p-Akt ser473, p-JNK thr183/tyr185, JNK, p-AMPK thr172, AMPK, p-STAT-3 ser727 and STAT-3 were obtained from Cell Signaling Technology (MA, USA). Antibodies for total Akt and iNOS were from Santa Cruz Biotechnology (CA, USA) and BD Transduction Laboratories™ (Canada) respectively.
RNA was extracted from C2C12 myotubes using an RNeasy® mini kit from QIAGEN. RNA from homogenized liver tissue was extracted using an RNeasy® fibrous tissue mini kit from QIAGEN. RNA was then reverse transcribed to cDNA using the high-capacity cDNA reverse transcription kit from applied biosystems. Real-time PCR for Ppargc1, Pck1, G6Pc, and GAPDH was then performed using Taqman assay on demand probes and primers from Applied Biosystems in a CFX96 real-time system from BIO-RAD. The relative expression of genes of interest was then determined by normalization to the housekeeping gene GAPDH using the comparative CT method for relative gene expression^30.
Chemokines and cytokines were quantified in macrophage media, or mouse plasma using the MILLIPLEX™ MAP mouse cytokine/chemokine kit (Millipore Corporation, MA, USA). Nitrite accumulation in media was determined by Greiss assay as previously described^25. […]

As for `CC/C=C\C[C@H](O)/C=C/C=C\C=C\[C@@H](O)C/C=C\C/C=C\CCC(=O)O` [PDX, 10S,17S-dihydroxy-docosa-4Z,7Z,11E,13Z,15E,19Z-hexaeonic acid], the “lowering of pre-clamp glycemia” value in assay [1] (PDX 2 μg i.v. 240 and 90 minutes prior to clamp) is recorded as “did not reach statistical significance”. Further, the “improvement of the GIR during the clamp” value in assay [1] (PDX 2 μg i.v. 240 and 90 minutes prior to clamp, P<0.01) is on record as 3.6 fold. In assay [1] (PDX 2 μg i.v. x2), the “PGC-1α, PEPCK, and G6Pase mRNA expression in liver” value is given as “enhanced suppression”. Further, in assay [1] (PDX 2 μg i.v. x2, P<0.01), the “IL-6 in the skeletal muscle and plasma” value is listed as “increased”. Moreover, the “adipose tissue chemokines or cytokines” value in assay [1] (epididymal adipose tissue) was “absence of any significant anti-inflammatory impact”. In addition, in the assay on lean C57BL/6J mice (P<0.05), the “phosphorylation of AMPK on Thr172 in muscle” value was “robust phosphorylation” and the “phosphorylation of hepatic STAT-3 on Ser727” value was “enhancing”. For the same compound, the pre-clamp glycemia result in the assay with lean C57BL/6J mice (PDX 1 ug i.v. immediately prior to and 2.5 h into 6 h lipid infusion, vs saline and lipid-treated animals, P<0.01) is recorded as “significant lowering”. Besides, in the assay on lean C57BL/6J mice (PDX 1 ug i.v. x2, lipid-infused), the peripheral insulin action result is on record as “partial restoration”. Besides, the “lipid-induced decline in whole-body insulin sensitivity (glucose infusion rate, GIR)” value in the assay with lean C57BL/6J mice (PDX 1 ug i.v. x2, lipid-infused, P<0.001) was “completely prevented the lipid-induced decline”. In the assay on lean C57BL/6J mice (PDX 1 ug i.v. x2, lipid-infused, significantly greater than saline-infused mice, P<0.05), the hepatic insulin action entry was “markedly increased”. For the same compound, the adiponectin in plasma entry in the assay on lean C57BL/6J mice (both lipid-infused groups (with and without PDX)) is “similarly reduced levels”. The “IL-6 protein expression in skeletal muscle” value in the assay on lean C57BL/6J mice (expression profile compared with plasma IL-6) is reported as “closely resembled that of plasma”. For the same compound, the “phosphorylation of Akt on Ser473” value in the assay with lean C57BL/6J mice (liver and skeletal muscle, immunoblot) was “confirmed the improved insulin action”. Moreover, in the assay with lean C57BL/6J mice (liver, immunoblot), the “JNK activation (phosphorylation on Thr183/Tyr185)” value is given as “prevents”. In the assay with lean C57BL/6J mice (mouse, in vivo), the “liver IL-6 levels” value is on record as “no significant effect”; the “suppression of PGC-1α and PEPCK in liver (mRNA)” value is given as “enhancing”. Also, the “lipid-mediated induction of iNOS” value in the assay with lean C57BL/6J mice (muscle and liver, immunoblot) is reported as “represses”. In the assay with lean C57BL/6J mice (plasma, lipid-infused), the “lipid-induced secretion of cytokines TNFα, IFNγ, IL-1β, IL-2 and IL-17” value is reported as “strongly suppresses”; the “lipid-induced secretion of proinflammatory chemokines CCL2/MCP-1 and CCL5/RANTES” value is “strongly suppresses”. In the assay with lean C57BL/6J mice (plasma, P<0.001), the “increase in IL-6 beyond that induced by lipid infusion alone” value is approximately 7 fold. Also, in the assay with lean C57BL/6J mice (tendency, P=0.08), the “suppression of G6Pase in liver (mRNA)” value is on record as “did not reach significance”.
